Results published in patent US6677368B2, “4-aryl substituted indolinones” (Sugen, Inc., priority 2000, dated 2004).

Molecular target: T1, FLK-1 (Mus musculus, UniProt P35918)
T1 construct: GST-Flklcd purified from sf9 recombinant baculovirus transfomnation (SUGEN, Inc.); host or cells: Sf9 insect cells, recombinant baculovirus
Experiment: GST-FLK-1 bioassay (tyrosine kinase activity on poly(glu-tyr))
Assay type: biochemical
Conditions: GST-Flk1, poly(glu-tyr) substrate, 0.5 μM ATP
Description: This assay analyzes the tyrosine kinase activity of GST-Flk1 on poly(glu-tyr) peptides.
1. Corning 96-well ELISA plates (Corning Catalog No. 25805-96).
2. poly(glu-tyr) 4:1, lyophilizate (Sigma Catalog No. P0275), 1 mg/ml in sterile PBS.
3. PBS Buffer: for 1 L, mix 0.2 g KH2PO4, 1.15 g Na2HPO4, 0.2 g KCl and 8 g NaCl in approx. 900 ml dH2O. When all reagents have dissolved, adjust the pH to 7.2 with HCl. Bring total volume to 1 L with dH2O.
4. PBST Buffer: to 1 L of PBS Buffer, add 1.0 ml Tween-20.
5. TBB—Blocking Buffer: for 1 L, mix 1.21 g TRIS, 8.77 g NaCl, 1 ml TWEEN-20 in approximately 900 ml dH2O. Adjust pH to 7.2 with HCl. Add 10 g BSA, stir to dissolve. Bring total volume to 1 L with dH2O. Filter to remove particulate matter.
6. 1% BSA in PBS: add 10 g BSA to approx. 990 ml PBS buffer, stir to dissolve. Adjust total volume to 1 L with PBS buffer, filter to remove particulate matter.
8. GST-Flklcd purified from sf9 recombinant baculovirus transfomnation (SUGEN, Inc.).
12. Kinase Dilution Buffer (KDB): mix 10 ml Hepes (pH 7.5), 1 ml 5M NaCl, 40 μL 100 mM sodium orthovanadate and 0.4 ml of 5% BSA in dH2O with 88.56 ml dH2O.
13. NUNC 96-well V bottom polypropylene plates, Applied Scientific Catalog #AS-72092
14. EDTA: mix 14.12 g ethylenediaminetetraacetic acid (EDTA) with approx. 70 ml dH2O. Add 10 N NaOH until EDTA dissolves. Adjust pH to 8.0. Adjust total volume to 100 ml with dH2O.
15. 1° and 2° Antibody Dilution Buffer: mix 10 ml of 5% BSA in PBS buffer with 89.5 ml TBST.
16. Anti-phosphotyrosine rabbit polyclonal antisera (SUGEN, Inc.)
17. Goat anti-rabbit HRP conjugate.
18. ABST solution: To approx. 900 ml dH2O add 19.21 g citric acid and 35.49 g Na2HPO4. Adjust pH to 4.0 with phosphoric acid. Add 2,2′-Azinobis(3-ethyl-benzthiazoline-6-sulfonic acid (ABTS, Sigma, Cat. No. A-1888, hold for approx. ½ hour, filter.
19. 30% Hydrogen Peroxide.
20. ABST/H2O2: add 3 μl of H2O2 to 15 ml of ABST solution.
1. Coat Corning 96-well ELISA plates with 2 μg of polyEY in 100 μl PBS/well, hold at room temperature for 2 hours or at […] overnight. Cover plates to prevent evaporation.
2. Remove unbound liquid from wells by inverting plate. Wash once with TBST. Pat the plate on a paper towel to remove excess liquid.
3. Add 100 μl of 1% BSA in PBS to each well. Incubate, with shaking, for 1 hr. at room temperature.
5. Soak wells with 50 mM HEPES (pH7.5, 150 μl/well).
6. Dilute test compound with dH2O/4% DMSO to 4 times the desired final assay concentration in 96-well polypropylene plates.
7. Add 25 μl diluted test compound to each well of ELISA plate. In control wells, place 25 μl of dH2O/4% DMSO.
8. Dilute GST-Flk1 0.005 μg (5 ng)/well in KDB.
9. Add 50 μl of diluted enzyme to each well.
10. Add 25 μl 0.5 M EDTA to negative control wells.
11. Add 25 μl of 40 mM MnCl2 with 4×ATP (2 μM) to all wells (100 μl final volume, 0.5 μM ATP final concentration in each well).
12. Incubate, with shaking, for 15 minutes at room temperature.
13. Stop reaction by adding 25 μl of 500 mM EDTA to each well.
14. Wash 3× with TBST and pat plate on paper towel to remove excess liquid.
15. Add 100 μl per well anti-phosphotyrosine antisera, 1:10,000 dilution in antibody dilution buffer. Incubate, with shaking, for 90 min. at room temperature.
17. Add 100 μl/well of goat anti-rabbit HRP conjugate (1:6,000 in antibody dilution buffer). Incubate, with shaking, for 90 minutes are room temperature.
19. Add 100 μl room temperature ABST/H2O2 solution to each well.
20. Incubate, with shaking for 15 to 30 minutes at room temperature.
21. If necessary, stop reaction by adding 100 μl of 0.2 M HCl to each well.
22. Read results on Dynatech MR7000 ELISA reader with test filter at 410 nM and reference filter at 630 nM.

T1 sequence (P35918 784-1345 limits assumed): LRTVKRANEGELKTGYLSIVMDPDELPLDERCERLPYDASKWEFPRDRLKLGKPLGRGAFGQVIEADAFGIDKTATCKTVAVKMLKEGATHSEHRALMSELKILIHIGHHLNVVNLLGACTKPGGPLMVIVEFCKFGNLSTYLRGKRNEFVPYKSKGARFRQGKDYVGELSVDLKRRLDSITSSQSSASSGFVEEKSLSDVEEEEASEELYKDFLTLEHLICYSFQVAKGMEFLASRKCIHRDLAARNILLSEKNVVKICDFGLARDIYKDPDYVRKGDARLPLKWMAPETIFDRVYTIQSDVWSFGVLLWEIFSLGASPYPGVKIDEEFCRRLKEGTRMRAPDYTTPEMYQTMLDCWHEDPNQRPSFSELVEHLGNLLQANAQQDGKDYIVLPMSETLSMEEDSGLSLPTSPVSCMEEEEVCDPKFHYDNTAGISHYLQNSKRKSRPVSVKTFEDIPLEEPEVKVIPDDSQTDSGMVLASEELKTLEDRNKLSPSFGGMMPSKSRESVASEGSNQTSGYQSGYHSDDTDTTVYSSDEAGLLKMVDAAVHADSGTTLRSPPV

IC50 | SMILES
5 nM | COc1cccc(-c2cccc3c2/C(=C/c2[nH]c(C)c(C(=O)NCCN(C(C)C)C(C)C)c2C)C(=O)N3)c1 [Example 52, 5-[4-(3-Methoxy-phenyl)-2-oxo-1,2-dihydro-indol-3-ylidenemethyl]-2,4-dimethyl-1H-pyrrole-3-carboxylic Acid (2-Diisopropylamino-ethyl)-amide]
21 nM | Cc1[nH]c(/C=C2\C(=O)Nc3cccc(-c4ccc(Br)cc4)c32)c(C)c1C(=O)N1CCN(C)CC1 [Example 53]
29 nM | Cc1[nH]c(/C=C2\C(=O)Nc3cccc(-c4ccc(Br)cc4)c32)c(C)c1C(=O)N1C[C@@H](C)N[C@@H](C)C1 [Example 57, 4-(4-Bromo-phenyl)-3-[4-[(cis)-3,5-dimethyl-piperazine-1-carbonyl)-3,5-dimethyl-1H-pyrrol-2-ylmethylene]-1,3-dihydro-indol-2-one]
54 nM | Cc1cc(C(=O)NCCN2CCCC2)c(/C=C2\C(=O)Nc3cccc(-c4ccc(Br)cc4)c32)[nH]1 [Example 58, 2-[4-(4-Bromo-phenyl)-2-oxo-1,2-dihydro-indol-3-ylidenemethyl]-5-methyl-1H-pyrrole-3-carboxylic Acid (2-Pyrrolidin-1-yl-ethyl)-amide]
18 nM | Cc1[nH]c(/C=C2\C(=O)Nc3cccc(-c4ccc(Br)cc4)c32)c(C)c1C(=O)NCCN(C(C)C)C(C)C [Example 60, 5-[4-(4-Bromo-phenyl)-2-oxo-1,2-dihydro-indol-3-ylidenemethyl]-2,4-dimethyl-1H-pyrrole-3-carboxylic Acid (2-Diisopropylamino-ethyl)-amide]
6 nM | CCN(CC)CCNC(=O)c1c[nH]c(/C=C2\C(=O)Nc3cccc(-c4ccc(Br)cc4)c32)c1C [Example 61, 5-[4-(4-Bromo-phenyl)-2-oxo-1,2-dihydro-indol-3-ylidenemethyl]-4-methyl-1H-pyrrole-3-carboxylic Acid (2-Diethylamino-ethyl)-amide]
43 nM | CCN(CC)CCNC(=O)c1c(C)[nH]c(/C=C2\C(=O)Nc3cccc(-c4cccc(Br)c4)c32)c1C [Example 63, 5-[4-(3-Bromo-phenyl)-2-oxo-1,2-dihydro-indol-3-ylidenemethyl]-2,4-dimethyl-1H-pyrrole-3-carboxylic Acid (2-Diethylamino-ethyl)-amide]
< 9.1 nM | Cc1[nH]c(/C=C2\C(=O)Nc3cccc(-c4ccccc4F)c32)c(C)c1C(=O)N1CCN(C)CC1 [Example 93, 3-[3,5-Dimethyl-4-(4-methyl-piperazine-1-carbonyl)-1H-pyrrol-2-ylmethylene]-4-(2-fluoro-phenyl)-1,3-dihydro-indol-2-one]
170 nM | Cc1cc(C(=O)NCCn2ccnn2)c(/C=C2\C(=O)Nc3cccc(-c4ccccc4F)c32)[nH]1 [Example 99, 2-[4-(2-Fluoro-phenyl)-2-oxo-1,2-dihydro-indol-3-ylidenemethyl]-5-methyl-1H-pyrrole-3-carboxylic Acid (2-[1,2,3]Triazol-1-yl-ethyl)-amide]
66 nM | Cc1[nH]c(/C=C2\C(=O)Nc3cccc(-c4cccc(C(F)(F)F)c4)c32)c(C)c1C(=O)N1CCN(C)CC1 [Example 104, 3-[3,5-Dimethyl-4-(4-methyl-piperazine-1-carbonyl)-H-pyrrol-2-ylmethylene]-4-(3-trifluoromethyl-phenyl)-1,3-dihydro-indol-2-one]
180 nM | Cc1cc(C(=O)NCCN2CCCC2)c(/C=C2\C(=O)Nc3cccc(-c4ccc(F)c(Cl)c4)c32)[nH]1 [Example 119, 2-[4-(3-Chloro-4-fluoro-phenyl)-2-oxo-1,2-dihydro-indol-3-ylidenemethyl]-5-methyl-1H-pyrrole-3-carboxylic Acid (2-Pyrrolidin-1-yl-ethyl)-amide]
75 nM | CCN(CC)CCNC(=O)c1c(C)[nH]c(/C=C2\C(=O)Nc3cccc(-c4ccc(OC(F)(F)F)cc4)c32)c1C [Example 140, 2,4-Dimethyl-5-[2-oxo-4-(4-trifluoromethoxy-phenyl)-1,2-dihydro-indol-3-ylidenemethyl]-1H-pyrrole-3-carboxylic Acid (2-Diethylamino-ethyl)-amide]
